Experimental data: ChEMBL document CHEMBL5625208, “Tumor selective self-assembled nanomicelles of carbohydrate-epothilone B conjugate for targeted chemotherapy” (Eur J Med Chem, 2023)
Activity calls are given as the source filed them. No cut-off for these calls is given here.

Columns and labels:
[1] = Prodrug release in DTT at pH 7.4 after 12 hrs by HPLC analysis; type: ADME; details: pH 7.4, 12 h
[2] = Prodrug release in DTT at pH 7.4 assessed as Epothilone B release after 12 hrs by HPLC analysis; type: ADME; details: pH 7.4, 12 h
HepG2 = assay: Antiproliferative activity against human HepG2 cells assessed as reduction in cell viability after 72 hrs by MTT assay; type: functional, cell-based
NCI-H460 = assay: Antiproliferative activity against human NCI-H460 cells assessed as reduction in cell viability after 72 hrs by MTT assay; type: functional, cell-based
MCF7 [3] = assay: Antiproliferative activity against human MCF7 cells assessed as reduction in cell viability after 72 hrs by MTT assay; type: functional, cell-based
NCI-460/Taxol = assay: Antiproliferative activity against human NCI-460/taxol cells assessed as reduction in cell viability after 72 hrs by MTT assay; type: functional, cell-based
L02 = assay: Cytotoxicity against human HL7702 cells incubated for 72 hrs by MTT assay; type: toxicity, cell-based; details: l02, 72 h
BEAS-2B = assay: Cytotoxicity against human BEAS-2B cells incubated for 72 hrs by MTT assay; type: toxicity, cell-based
MCF7 [4] = assay: Antiproliferative activity against human MCF7 cells assessed as reduction in cell viability preincubated for with NEM for 1 hr followed by compound addition by xCELLigence real time analysis; type: functional, cell-based
MCF7 [5] = assay: Antiproliferative activity against human MCF7 cells assessed as reduction in cell viability at 1 to 1000 nM preincubated for with NEM for 1 hr followed by compound addition and measured after 72 hrs by MTT assay; type: functional, cell-based; details: dose 1-1000 nM
MCF7 [6] = assay: Antiproliferative activity against human MCF7 cells assessed as reduction in cell viability at 1 to 1000 nM preincubated for with rhamnose for 1 hr followed by compound addition and measured after 72 hrs by MTT assay; type: functional, cell-based; details: dose 1-1000 nM
[7] = Stability in mouse plasma; type: ADME, cell-free
MCF7 [8] = assay: Antitumor activity against human MCF7 cells xenografted in mouse assessed as reduction in tumor growth at 3.2 to 6.4 mg/kg, ip administered every 3 days for 3 times and measured after 14 days; type: functional, organism-based; details: dose 3.2-6.4 mg/kg, time 14.0 day
MCF7 [9] = assay: Antitumor activity against human MCF7 cells xenografted in mouse assessed as reduction in tumor weight at 3.2 to 6.4 mg/kg, ip administered every 3 days for 3 times and measured after 14 days; type: functional, organism-based; details: dose 3.2-6.4 mg/kg, time 14.0 day
[10] = Toxicity in mouse xenografted with human MCF7 cells assessed as reduction in body weight at 3 mg/kg, ip administered every 3 days for 3 times and measured after 14 days; type: organism-based; details: in vivo, 336 h, time 14 day
[11] = Toxicity in mouse xenografted with human MCF7 cells at 3 mg/kg, ip administered every 3 days for 3 times and measured after 14 days; type: organism-based; details: in vivo, 336 h, time 14 day
[12] = Toxicity in mouse xenografted with human MCF7 cells assessed as animal death at 3.2 mg/kg, ip administered every 3 days for 3 times and measured after 14 days; type: organism-based; details: in vivo, 336 h, time 14 day
[13] = Toxicity in mouse xenografted with human MCF7 cells assessed as change in body weight at 3.2 mg/kg, ip administered every 3 days for 3 times and measured after 14 days; type: organism-based; details: in vivo, 336 h, time 14 day
MCF7 [14] = assay: Antitumor activity against human MCF7 cells xenografted in mouse assessed as appearance of intracellular space dilatation in tumor cells at 3.2 to 6.4 mg/kg, ip administered every 3 days for 3 times measured after 14 days by H and E staining based assay; type: functional, organism-based; details: dose 3.2-6.4 mg/kg, time 14.0 day
MCF7 [15] = assay: Antitumor activity against human MCF7 cells xenografted in mouse assessed as appearance of small cavities in tumor cells at 3.2 to 6.4 mg/kg, ip administered every 3 days for 3 times measured after 14 days by H and E staining based assay; type: functional, organism-based; details: dose 3.2-6.4 mg/kg, time 14.0 day
MCF7 [16] = assay: Antitumor activity against human MCF7 cells xenografted in mouse assessed as reduction in PCNA positive cells at 3.2 to 6.4 mg/kg, ip administered every 3 days for 3 times measured after 14 days by H and E staining based assay; type: functional, organism-based; details: dose 3.2-6.4 mg/kg, time 14.0 day
[17] = Toxicity in mouse xenografted with human MCF7 cells assessed as spleen damage at 3.2 mg/kg, ip administered every 3 days for 3 times and measured after 14 days; type: organism-based; details: in vivo, 336 h, time 14 day
[18] = Toxicity in mouse xenografted with human MCF7 cells assessed as kidney damage at 3.2 mg/kg, ip administered every 3 days for 3 times and measured after 14 days; type: organism-based; details: in vivo, 336 h, time 14 day
[19] = Prodrug release in PBS at pH 7.4 assessed as Epothilone B release in presence of different concentrations of DTT by HPLC analysis; type: ADME; details: buffer
[20] = Toxicity in mouse xenografted with human MCF7 cells assessed as animal death at 3 mg/kg, ip administered every 3 days for 3 times and measured on day 8; type: organism-based; details: in vivo, 192 h, time 8 day
MCF7 [21] = assay: Antitumor activity against human MCF7 cells xenografted in mouse assessed as appearance of intracellular space dilatation in tumor cells at 1.5 to 3 mg/kg, ip administered every 3 days for 3 times measured after 14 days by H and E staining based assay; type: functional, organism-based; details: dose 1.5-3 mg/kg, time 14.0 day
MCF7 [22] = assay: Antitumor activity against human MCF7 cells xenografted in mouse assessed as appearance of small cavities in tumor cells at 1.5 to 3 mg/kg, ip administered every 3 days for 3 times measured after 14 days by H and E staining based assay; type: functional, organism-based; details: dose 1.5-3 mg/kg, time 14.0 day
MCF7 [23] = assay: Antitumor activity against human MCF7 cells xenografted in mouse assessed as reduction in PCNA positive cells at 1.5 to 3 mg/kg, ip administered every 3 days for 3 times measured after 14 days by H and E staining based assay; type: functional, organism-based; details: dose 1.5-3 mg/kg, time 14.0 day

## C/C(=C\c1csc(C)n1)[C@@H]1C[C@@H]2O[C@]2(C)CCC[C@H](C)[C@H](OC(=O)Cc2ccccc2SSCCC(=O)NCc2cn(CCOCCOCCOCCO[C@@H]3O[C@@H](C)[C@H](O)[C@@H](O)[C@H]3O)nn2)[C@@H](C)C(=O)C(C)(C)[C@@H](O)CC(=O)O1
[1]
  Drug metabolism: Active
[2]
  Drug metabolism: Not Active

## C/C(=C\c1csc(C)n1)[C@@H]1C[C@@H]2O[C@]2(C)CCC[C@H](C)[C@H](OC(=O)OCCSSCCOCc2cn(CCOCCOCCOCCO[C@@H]3O[C@@H](C)[C@H](O)[C@@H](O)[C@H]3O)nn2)[C@@H](C)C(=O)C(C)(C)[C@@H](O)CC(=O)O1
HepG2
  Activity: Active
NCI-H460
  Activity: Active
MCF7 [3]
  Activity: Active
NCI-460/Taxol
  Activity: Active
L02
  Activity: Non-Toxic
BEAS-2B
  Activity: Non-Toxic
MCF7 [4]
  Activity: inactive
MCF7 [5]
  Activity: inactive
MCF7 [6]
  Activity: inactive
[7]
  Stability: Stable
MCF7 [8]
  Activity: Active
MCF7 [9]
  Activity: Active
[10]
  Activity: Non-Toxic
[11]
  Activity: Non-Toxic
[12]
  Activity: Non-Toxic
[13]
  Activity: Non-Toxic
MCF7 [14]
  Activity: Active
MCF7 [15]
  Activity: Active
MCF7 [16]
  Activity: Active
[17]
  Activity: Non-Toxic
[18]
  Activity: Non-Toxic
[1]
  Drug metabolism: Active
[2]
  Drug metabolism: Active
[19]
  Drug metabolism: Not Active

## C/C(=C\c1csc(C)n1)[C@@H]1C[C@@H]2O[C@]2(C)CCC[C@H](C)[C@H](OC(=O)OCCSSCCOCc2cn(CCOCCOCCOCCO[C@@H]3O[C@H](CO)[C@@H](O[C@@H]4O[C@@H](C)[C@H](O)[C@@H](O)[C@H]4O)[C@H](O)[C@H]3O[C@@H]3O[C@@H](C)[C@H](O)[C@@H](O)[C@H]3O)nn2)[C@@H](C)C(=O)C(C)(C)[C@@H](O)CC(=O)O1
HepG2
  Activity: Active
NCI-H460
  Activity: Active
MCF7 [3]
  Activity: Active
NCI-460/Taxol
  Activity: Active

## C/C(=C\c1csc(C)n1)[C@@H]1C[C@@H]2O[C@]2(C)CCC[C@H](C)[C@H](O)[C@@H](C)C(=O)C(C)(C)[C@@H](O)CC(=O)O1 [PATUPILONE]
MCF7 [5]
  Activity: Active
[10]
  Activity: Toxic
[20]
  Activity: Toxic
MCF7 [21]
  Activity: Active
MCF7 [22]
  Activity: Active
MCF7 [23]
  Activity: Active
